Consider 6 molecules from ChEMBL document CHEMBL1150480, “Photoreactive CMP-sialic acids as substrates for 2,6-sialyltransferase” (Bioorg Med Chem Lett, 1995).

Series [1] addresses T1, Beta-galactoside alpha-2,6-sialyltransferase 1 (Rattus norvegicus) (UniProt P13721).
T1 sequence (whole entry): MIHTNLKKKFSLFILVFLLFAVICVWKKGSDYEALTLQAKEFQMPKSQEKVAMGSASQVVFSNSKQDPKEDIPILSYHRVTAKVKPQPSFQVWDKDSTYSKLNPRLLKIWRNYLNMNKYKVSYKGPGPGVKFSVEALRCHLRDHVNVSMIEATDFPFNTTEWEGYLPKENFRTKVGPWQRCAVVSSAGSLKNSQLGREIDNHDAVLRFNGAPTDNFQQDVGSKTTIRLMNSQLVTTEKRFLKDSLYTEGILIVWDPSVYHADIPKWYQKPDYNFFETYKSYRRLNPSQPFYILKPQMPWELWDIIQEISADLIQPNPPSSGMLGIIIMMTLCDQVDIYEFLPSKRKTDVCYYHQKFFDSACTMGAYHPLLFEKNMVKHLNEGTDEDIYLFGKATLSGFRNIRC
Kind of series: Evaluation of kinetic constant for rat liver GaI-beta-1,4GIcNAc alpha2,6-sialyltransferase in presence of compound.

The nature of series [2]: Evaluation of ratio of Michaelis-Menten constant to that of kinetic constant against 2,6-sialyltransferase in presence of compound.
Compound in series [3]: CC(=O)NC1C(O)CC(OP(=O)(O)OC[C@H]2OC(n3ccc(N)nc3=O)[C@H](O)[C@@H]2O)(C(=O)O)OC1[C@H](O)[C@H](O)CNC(=O)c1ccc(C(=O)c2ccccc2)cc1
Kind of series: (§1) Evaluation of Michaelis-Menten constant of rat liver GaI-beta-1,4GIcNAc alpha2,6-sialyltransferase in presence of compound.

Compound in series [4]: CC(=O)NC1C(O)CC(OP(=O)(O)OC[C@H]2OC(n3ccc(N)nc3=O)[C@H](O)[C@@H]2O)(C(=O)O)OC1[C@H](O)[C@H](O)CNC(=O)c1ccc(N=[N+]=[N-])cc1
The description is as §1.

Compound in series [5]: CC(=O)NC1C(O)CC(OP(=O)(O)OC[C@H]2OC(n3ccc(N)nc3=O)[C@H](O)[C@@H]2O)(C(=O)O)OC1[C@H](O)[C@H](O)CNC(=O)c1ccc(N=[N+]=[N-])cc1O
The series is described as §1.

Compound in series [6]: NCC(=O)NC1C(O)CC(OP(=O)(O)OC[C@H]2OC(n3ccc(N)nc3=O)[C@H](O)[C@@H]2O)(C(=O)O)OC1[C@H](O)C(O)CO
The series is described as §1.

Compound in series [7]: [N-]=[N+]=Nc1ccc(C(=O)NCC(=O)NC2C(O)CC(OP(=O)(O)OC[C@H]3OC(n4ccc(N)nc4=O)[C@H](O)[C@@H]3O)(C(=O)O)OC2[C@H](O)[C@H](O)CO)cc1
Described as §1.

For the molecule `CC(=O)NC1C(O)CC(OP(=O)(O)OC[C@H]2OC(n3ccc(N)nc3=O)[C@H](O)[C@@H]2O)(C(=O)O)OC1[C@H](O)[C@H](O)CNC(=O)c1ccc(C(=O)c2ccccc2)cc1` (stereo not given in full), the Relative Vmax in series [1] came out at 0.8. Moreover, the Ratio in series [2] was 11.8.

Turning to `[N-]=[N+]=Nc1ccc(C(=O)NCC(=O)NC2C(O)CC(OP(=O)(O)OC[C@H]3OC(n4ccc(N)nc4=O)[C@H](O)[C@@H]3O)(C(=O)O)OC2[C@H](O)[C@H](O)CO)cc1` (stereo not given in full), the Relative Vmax in series [1] amounted to 0.5. The Ratio in series [2] was determined as 3.1.

Consider `CC(=O)NC1C(O)CC(OP(=O)(O)OC[C@H]2OC(n3ccc(N)nc3=O)[C@H](O)[C@@H]2O)(C(=O)O)OC1[C@H](O)[C@H](O)CNC(=O)c1ccc(N=[N+]=[N-])cc1` (stereo not given in full), for which the Relative Vmax in series [1] is 0.9. In addition, the Ratio in series [2] stood at 13.6.

With `CC(=O)NC1C(O)CC(OP(=O)(O)OC[C@H]2OC(n3ccc(N)nc3=O)[C@H](O)[C@@H]2O)(C(=O)O)OC1[C@H](O)[C@H](O)CNC(=O)c1ccc(N=[N+]=[N-])cc1O` (stereo not given in full), in series [1], the Relative Vmax was 1.1. Besides, the Ratio in series [2] was 13.8.

Take `NCC(=O)NC1C(O)CC(OP(=O)(O)OC[C@H]2OC(n3ccc(N)nc3=O)[C@H](O)[C@@H]2O)(C(=O)O)OC1[C@H](O)C(O)CO` (stereo not given in full): the Relative Vmax in series [1] turned out to be 1. The Ratio in series [2] is 22.2.

B1: Beta-galactoside alpha-2,6-sialyltransferase 1 (Rattus norvegicus), P13721 (protein)
chain: T1 sequence (whole entry)
Usually Km stands for the concentration of substrate that gives half-maximal velocity. With B1, the Km came out at 68 µM in series [3]; 66 µM in series [4]; 80 µM in series [5]; 45 µM in series [6]; 161 µM in series [7].
